The record followed here is ChEMBL document CHEMBL2046305, “Discovery of selective menaquinone biosynthesis inhibitors against Mycobacterium tuberculosis” (J Med Chem, 2012).

Assay [1] has as its system Mycobacterium tuberculosis. Description: Antibacterial activity against rifampicin-resistant Mycobacterium tuberculosis H37Rv by microplate alamar blue assay. Format: functional.
Assay [2] relates to Mycobacterium tuberculosis. Description: Antibacterial activity against isoniazid-resistant Mycobacterium tuberculosis H37Rv by microplate alamar blue assay. Format: functional.

≈ marks a conversion by molar mass, not a printed value.

Turning to `CCCCCC[C@H](CN1CCC(COc2cccc(/C(=N\OC)c3ccc(Cl)cc3)c2)CC1)OC(N)=O`, the MIC in assay [1] was found to be 1.51 µg/mL (≈ 2.85 µM); in assay [2] it was 1.52 µg/mL (≈ 2.87 µM).
Consider `NNC(=O)c1ccncc1` [ISONIAZID], for which the MIC in assay [1] is 0.05 µg/mL (≈ 0.365 µM); in assay [2], > 8 µg/mL.
For `CCCCCC[C@H](CN1CCC(COc2cccc(C(=O)c3ccc(Cl)cc3)c2)CC1)OC(N)=O`, the MIC in assay [1] and in assay [2] was 2.91 µg/mL (≈ 5.81 µM) throughout.
Regarding `CO[C@H]1/C=C/O[C@@]2(C)Oc3c(C)c(O)c4c(O)c(c(/C=N/N5CCN(C)CC5)c(O)c4c3C2=O)NC(=O)/C(C)=C\C=C\[C@H](C)[C@H](O)[C@@H](C)[C@@H](O)[C@@H](C)[C@H](OC(C)=O)[C@@H]1C` [RIFAMPIN], the MIC in assay [1] is > 4 µg/mL; in assay [2], 0.03 µg/mL (≈ 0.0365 µM).
